Values quoted from earlier work in publication PMC12308805, “Ultrahigh-Throughput Virtual Screening Strategies against PPI Targets: A Case Study of STAT Inhibitors” (Journal of Chemical Information and Modeling, 2025).
Square brackets hold non-standard residues; d marks the D form. Peptide text beside a SMILES is read from it. * marks the point of attachment. pY = N[C@@H](Cc1ccc(OP(=O)(O)O)cc1)C(=O)O; aIle = CC[C@@H](C)[C@H](N)C(=O)O; Cha = N[C@@H](CC1CCCCC1)C(=O)O; AMC = Cc1cc(=O)oc2cc(N*)ccc12; Boc = CC(C)(C)OC(=O)*

Test system: STAT3
Settings: cited from earlier work

Row | Compound | Type (known STAT3 active)
1 | CC(=O)N[C@@H](Cc1ccc(OP(=O)(O)O)cc1)C(=O)N[C@@H](CC(C)C)C(=O)N1CCC[C@H]1C(=O)N[C@H](CCC(N)=O)C(=O)N[C@@H](C(N)=O)[C@H](C)O [CHEMBL160353] (Ac-[pY]LP[dQ][dT]-NH2) | Active

Same assay, conditions: sheet 6QHD_actives_decoys, retrospective screening set for STAT3 SH2 domain (PDB 6QHD); decoys are presumed inactives, not tested; ref DUD-E; cited from earlier work

Row | Compound | Type
2 | CC[C@@H](C)[C@H](NC(=O)OC(C)(C)C)C(=O)N[C@@H](CCC(=O)O)C(=O)NCC(=O)N[C@@H](CCCNC(=N)N)C(=O)Nc1ccc2c(C)cc(=O)oc2c1 [Decoy753] (Boc-[aIle]EGR-{AMC}) | Inactive (Decoy)
3 | COc1cc(-c2nnc(SCC(=O)N/N=C/c3cc(OC)c(OC(C)=O)c(OC)c3)n2-c2ccccc2)cc(OC)c1OC [Decoy928] | Inactive (Decoy)
4 | CCN(CC)Cc1nnn(-c2nonc2N)c1C(=O)N/N=C(\C)c1ccc(OCc2ccc(Cl)cc2Cl)cc1 [Decoy952] | Inactive (Decoy)
5 | CCN(CC)c1ccc(NC(=O)CSc2n[nH]c(N/N=C/c3cc(OC)c(O)cc3[N+](=O)[O-])n2)cc1 [Decoy906] | Inactive (Decoy)
6 | CCOC(=O)c1ccc(NC(=O)c2cc([N+](=O)[O-])ccc2NC(=O)CNCc2ccc3c(c2)OCO3)cc1 [Decoy729] | Inactive (Decoy)
7 | COc1cc(/C=N/N=C2\NC(=O)[C@H](CC(=O)O)S2)cc(Br)c1OS(=O)(=O)c1ccc(NC(C)=O)cc1 [Decoy786] | Inactive (Decoy)
8 | CCNc1nc(NCC)n2c(SCC(=O)NC3=C(C(=O)OCC)[C@H]4CCC[C@@H]4S3)nnc2n1 [Decoy857] | Inactive (Decoy)
9 | CCCOc1ccc([C@H]2C(C(=O)c3c(C)nc4ccccn34)=C(O)C(=O)N2CCN(CC)CC)cc1OCC [Decoy760] | Inactive (Decoy)
10 | COC(=O)[C@@H]1O[C@@H](O[C@@H]2CC[C@@]3(C)[C@@H](CC[C@H]4[C@H]3C(=O)C[C@@]3(C)[C@@H]4CC[C@]3(O)/C(COC(C)=O)=N/NC(N)=O)C2)[C@H](OC(C)=O)[C@@H](OC(C)=O)[C@@H]1OC(C)=O [Decoy959] | Inactive (Decoy)
11 | CC(=O)Nc1cccc(NC(=O)CSc2nnc(N/N=C/c3c(O)ccc4ccccc34)n2N)c1 [Decoy752] | Inactive (Decoy)
12 | CCc1ccc2c(c1)[C@@]1(N[C@@H](Cc3ccc(O)c(O)c3)[C@H]3C(=O)N(CCc4ccc(OC)c(OC)c4)C(=O)[C@H]31)C(=O)N2 [Decoy902] | Inactive (Decoy)
13 | CC(=O)O[C@H]1[C@@H](O)[C@@H](O[C@@H](/C=N\c2cnc([N+](=O)[O-])s2)[C@@H](CO)O[C@H](O)/C=N/c2cnc([N+](=O)[O-])s2)O[C@@H](CO)[C@H]1O [Decoy909] | Inactive (Decoy)
14 | N[C@@H](CCCC[n+]1cc(CC[C@H](N)C(=O)O)cc(CC[C@H](N)C(=O)O)c1CCC[C@H](N)C(=O)O)C(=O)[O-] [Decoy841] | Inactive (Decoy)
15 | COc1ccc2cc([C@H](c3nnnn3C(C)(C)C)N(CCc3ccc(OC)c(OC)c3)Cc3ccccc3)c(=O)[nH]c2c1 [Decoy776] | Inactive (Decoy)
16 | CCCCCCCCO[C@@H]1[C@@H](O)[C@@H](O)O[C@H](Cn2c(=O)n(C[C@H]3O[C@H](O)[C@H](O)[C@@H](OCCCCCCCC)[C@@H]3O)c3cc(Cl)ccc32)[C@H]1O [Decoy956] | Inactive (Decoy)
17 | CN(Cc1cnc2nc(N)nc(N)c2n1)c1ccc(C(=O)N[C@H](CCC(=O)NCCNC(=O)CCCC[C@@H]2SC[C@@H]3NC(=O)N[C@@H]32)C(=O)O)cc1 [Decoy821] | Inactive (Decoy)

Same assay, conditions: sheet 6QHD_actives_decoys; known STAT3 actives of the retrospective screening set; ref ChEMBL / literature; cited from earlier work

Row | Compound | Type (known STAT3 active)
18 | CC(=O)N[C@@H](Cc1ccc(OP(=O)(O)O)cc1)C(=O)N[C@@H](CC1CCCCC1)C(=O)N1CCC[C@H]1C(=O)N[C@@H](CCC(N)=O)C(=O)N[C@H](C(N)=O)[C@@H](C)O [CHEMBL371871] (Ac-[pY][Cha]PQT-NH2) | Active
19 | CC(C)C[C@H](NC(=O)/C=C/c1ccc(OP(=O)(O)O)cc1)C(=O)N1CCC[C@H]1C(=O)N[C@@H](CCC(N)=O)C(=O)NCc1ccccc1 [CHEMBL267246] | Active
20 | CC(C)C[C@H](NC(=O)/C=C/c1ccc(OP(=O)(O)O)cc1)C(=O)N1C[C@H]2C[C@H]2[C@H]1C(=O)N[C@@H](CCC(N)=O)[C@@H](C)O [CHEMBL583725] | Active
21 | NC(=O)CC[C@H](NC(=O)[C@@H]1Cc2cccc3c2N1C(=O)[C@@H](NC(=O)/C=C/c1ccc(OP(=O)(O)O)cc1)CC3)C(=O)NCc1ccccc1 [CHEMBL449547] | Active

Same assay, conditions: sheet 6QHD_actives_decoys; retrospective screening set for STAT3 SH2 domain (PDB 6QHD); […]; ref DUD-E; cited from earlier work

Row | Compound | Type
22 | COc1ccccc1/C=C/C(=O)NC(=S)Nc1ccc(S(=O)(=O)Nc2cc(C)on2)cc1 [Decoy519] | Inactive (Decoy)
23 | O=[N+]([O-])c1ccc(S(=O)(=O)Nc2cccc(NS(=O)(=O)c3ccc([N+](=O)[O-])cc3)c2)cc1 [Decoy459] | Inactive (Decoy)

Same assay, conditions: sheet 6QHD_actives_decoys; retrospective screening set for STAT3 SH2 domain (PDB 6QHD); decoys generated with DUD-E and presumed inactive, not tested; ref DUD-E; cited from earlier work

Row | Compound | Type
24 | COc1ccc(CCNc2ccc3nnc(CCNS(=O)(=O)c4ccc(C)cc4)n3n2)cc1OC [Decoy586] | Inactive (Decoy)
25 | O=C(CCSc1n[nH]c(N/N=C/c2cccc(Br)c2)n1)Nc1ccccc1[N+](=O)[O-] [Decoy421] | Inactive (Decoy)
26 | COC(=O)[C@@H]1O[C@H](OC/C(=N/NC(N)=O)[C@@]2(O)CC[C@@H]3[C@@H]4CC[C@@H]5C[C@H](OC(C)=O)CC[C@@]5(C)[C@H]4C(=O)C[C@]32C)[C@@H](OC(C)=O)[C@H](OC(C)=O)[C@H]1OC(C)=O [Decoy338] | Inactive (Decoy)
27 | CCN(CC)c1ccc(-n2nc3cc(C)c(NC(=S)NC(=O)c4ccc(OC)cc4OC)cc3n2)cc1 [Decoy453] | Inactive (Decoy)
28 | CCCC[C@@]1(c2ccc(F)cc2)NC(=O)N(CC(=O)Nc2ccc(S(=O)(=O)N(CC)CC)cc2)C1=O [Decoy682] | Inactive (Decoy)
29 | COC(=O)[C@@H]1[C@H](NC(=O)[C@@H]2CCOC2)c2cc(NCC(C)(C)C)cnc2N1CCc1c[nH]c2ccccc12 [Decoy468] | Inactive (Decoy)
30 | COc1ccc(N([C@@H](C)C(=O)Nc2ccc(S(=O)(=O)Nc3ccc(Cl)c(C(F)(F)F)c3)cc2)S(C)(=O)=O)cc1 [Decoy412] | Inactive (Decoy)
31 | COCCCNC(=O)C(=O)N/N=C/c1cc(I)c(OCC(=O)Nc2cccc(C(F)(F)F)c2)c(OC)c1 [Decoy573] | Inactive (Decoy)
32 | COC(=O)[C@@H]1[C@H](O)[C@H](C)[C@H](O)O[C@@H]1[C@H](C)[C@H](O)[C@@H](C)/C=C\C=C(/C)C(=O)Nc1c(C)c(OC(C)=O)c2c(c1O)C(=O)C(C)=C1OCOC(/C(C)=C/C(C)=O)=C12 [Decoy345] | Inactive (Decoy)
33 | CC[C@@H](O)[C@@](C)(O)/C=C(\C)C(=O)[C@H](C)C[C@@](C)(OC)[C@H](O[C@@H]1O[C@H](C)C[C@H](N(C)C)[C@H]1O)[C@@H](C)[C@H](O[C@H]1C[C@@](C)(OC)[C@@H](O)[C@H](C)O1)[C@@H](C)C(=O)O [Decoy657] | Inactive (Decoy)
34 | CCSc1nnc(/N=C(\O)CSc2n[nH]c(N/N=C/c3cn(C)nc3C)n2)s1 [Decoy414] | Inactive (Decoy)
35 | C[N+]1=C(/C=C/C=C2/N(CCCCC(=O)NCCOCCOCCNCCO[C@H]3O[C@@H](CO)[C@@H](O)[C@H](O)[C@@H]3O)c3ccccc3C2(C)C)C(C)(C)c2ccccc21 [Decoy588] | Inactive (Decoy)
36 | Cc1nn(C)c(C)c1CCCN(C)c1ccc(NS(=O)(=O)c2ccc(C(C)C)cc2)cc1C(=O)O [Decoy642] | Inactive (Decoy)
37 | O=c1c(-c2ccc(O[C@@H]3O[C@H](CO)[C@@H](O)[C@H](O)[C@H]3O)cc2)coc2c(CN3CCCC3)c(O)c(CN3CCCC3)c(O)c12 [Decoy428] | Inactive (Decoy)
38 | COc1ccc([C@H](C(=O)NCS(=O)(=O)c2ccc(C)cc2)N(Cc2ccco2)C(=O)CCl)cc1 [Decoy337] | Inactive (Decoy)
39 | CC[C@@H]1Oc2ccc(S(=O)(=O)N3CCN(C(=O)CNC(=O)c4cccs4)CC3)cc2NC1=O [Decoy604] | Inactive (Decoy)
40 | COc1ccc(S(=O)(=O)N(CC(=O)Nc2ccccc2C(=O)NCc2ccco2)c2ccc(F)cc2)cc1OC [Decoy480] | Inactive (Decoy)
41 | C=C[C@@](C)(CC/C=C(\C)CC/C=C(\C)C[C@H](O)/C=C(\C)C(=O)O)O[C@@H]1O[C@H](CO)[C@@H](O)[C@H](O)[C@H]1O[C@@H]1O[C@H](CO)[C@@H](O)[C@H](O)[C@H]1O [Decoy688] | Inactive (Decoy)
42 | CCOC(=O)c1[nH]c(C)c(C(=O)C2=C(O)C(=O)N(CCN(CC)CC)[C@H]2c2ccc(OC)c(OC)c2)c1C [Decoy455] | Inactive (Decoy)
43 | NCCCCCCNc1ncnc2c1ncn2[C@@H]1O[C@H](COP(=O)(O)O)[C@@H](OP(=O)(O)O)[C@H]1O [Decoy505] | Inactive (Decoy)
44 | C=C1CC[C@H]2[C@](C)(CO[C@H]3O[C@@H](CO[C@H]4O[C@@H](CO)[C@@H](O)[C@H]4O)[C@@H](O)[C@@H](O)[C@H]3O)[C@@H](O)CC[C@]2(C)[C@H]1CC/C(C)=C\CO [Decoy612] | Inactive (Decoy)
45 | CCOc1ccc(NC(=O)CSC2=C(C#N)[C@H](c3ccco3)C(C(=O)Nc3ccc(OC)cc3)=C(C)N2)cc1 [Decoy721] | Inactive (Decoy)
46 | COc1ccc(/C=C(\C#N)C(=O)Nc2ccc(S(=O)(=O)Nc3ccc(C)cc3)cc2)cc1OS(=O)(=O)c1ccc(NC(C)=O)cc1 [Decoy355] | Inactive (Decoy)
47 | COc1ccc(C(=O)O[C@H]2[C@@H]3C=CO[C@H](O[C@@H]4O[C@H](COC(C)=O)[C@@H](OC(C)=O)[C@H](OC(C)=O)[C@H]4OC(C)=O)[C@@H]3[C@](O)(COC(C)=O)[C@@H]2O)cc1 [Decoy373] | Inactive (Decoy)
48 | CCCCOc1ccc([C@H]2C(C(=O)c3nc4c(C)cccn4c3C)=C(O)C(=O)N2CCOC)cc1OC [Decoy346] | Inactive (Decoy)
49 | COc1ccc(CCC(=O)O)c([C@H](CC(=O)O)C(=O)O)c1OS(=O)(=O)c1ccc(C)cc1 [Decoy549] | Inactive (Decoy)
50 | COC(=O)c1ccc(NC(=O)CSc2nn3c(SCC(=O)Nc4ccc(C(=O)OC)cc4)nnc3s2)cc1 [Decoy625] | Inactive (Decoy)
51 | C=C[C@@](C)(O)CC/C=C(\C)C(=O)O[C@@H]1[C@@H]2O[C@]2(C)[C@H]2[C@H](O[C@@H]3O[C@H](CO)[C@@H](O)[C@H](O)[C@H]3O)OC=C[C@@]12O [Decoy691] | Inactive (Decoy)
